What is called ED50 is the dose that gives a 50% effect, or the effect in half of the subjects.

The results in this text go back to patent US4716228A, “Condensed 2-substituted thiazole derivatives” (Farmitalia Carlo Erba S.p.A., priority 1985, dated 1987).

In one test the test system is stress ulcers. The experiment in a line: inhibition of stress ulcers in rats (restraint in water at 23° C. for 4 hours). In kind it is in vivo. Conditions: po, rat, p.o., read-out: Stress Test ED50. As to the method: The anti-ulcerogenic activity of the compounds of the invention is shown also by the fact that they are active in the test of the inhibition of stress ulcers in rats (restraint in water at 23° C. for 4 hours), according to the method of M. Usardi et al. (Prostaglandins, 8, 43, 1974).

A further test concerns histamine H2-receptor. As to the kind of experiment: histamine H2-receptor antagonist activity in vitro on the guinea pig right atrium. Type of test: cell-based. The conditions noted are these: screening dose 1.10^-5 M. The procedure: The compounds of the invention were assayed for histamine H2 -receptor antagonist activity in vitro on the guinea pig right atrium. Male guinea pigs were killed by a blow on the head and the heart was quickly excised and placed in oxygenated Ringer Locke solution of the following composition (g/l): NaCl 9, KCl 0.42, CaCl2 0.24, NaHCO3 0.5, Glucose 1. Atria were dissected away from the rest of the heart, freed from connective tissue, suspended in 20 ml organ bath containing Ringer Locke solution thermoregulated at 37° C., and carboxygenated with 95% O2 and 5% CO2. Atria spontaneously beating were allowed to adjust to the bath conditions for at least 30 minutes prior to the experiment. Histamine was added to the bath in cumulative fashion starting from 3×10^-7 M till 1×10^-4 M. The histamine-induced increase in atrial rate was allowed to plateau before the next successive concentration was added. After washing and waiting for the recovery of atria rate, compounds were added 5 minutes before repeating the cumulative dose response curve with histamine.
A compound is considered an H2 -receptor antagonist if it is able to shift the dose response curve of histamine to the right of the concentration <1×10^-5 M.

Test [1] deals with acetyl salicylic acid (ASA) induced gastric ulcers. The experiment in a line: inhibition of acetyl salicylic acid (ASA) induced gastric ulcers in rats. In kind it is in vivo. The conditions noted are these: po; rat, p.o.; read-out: ASA Test ED50. The procedure:
The activity of these compounds was assessed in rats in anti-ulcer and anti-secretory tests. The anti-ulcerogenic activity of the compounds of the invention is shown, for example, by the fact that they are active in the test of the inhibition of acetyl salicylic acid (ASA) induced gastric ulcers in rats (M. Hemmati et al., Pharmacology, 9, 374, 1973).

The subject of another test is gastric secretion. The experiment in a line: gastric anti-secretory activity, pylorus ligature technique. In kind it is in vivo, rats. Conditions: rat, i.d., read-out: Antisecretory activ. test ED50. The procedure:
The gastric anti-secretory activity of the compounds of the invention was evaluated in rats by the pylorus ligature technique (H. Shay et al., Gastroenterology 5, 43, 1945).

Test [2] relates to duodenal ulcers, induced by cysteamine. As to the kind of experiment: inhibition of duodenal ulcers induced in rats by cysteamine. The conditions noted are these: po; rat, p.o.; inhibition of ulcer index; read-out: Cysteamine Test ED50. Type of test: in vivo. As to the method: The inhibition of duodenal ulcers, induced in rats by cysteamine, was evaluated for the test of compounds as percentage inhibition of ucler index [sum of the lesioned areas per rat (mm^2)] according to the method of Fuji Y. et at, Jap. J. Pharm. 25, 663, 1975.

For `CC(C)NC(=O)N1CCc2nc(N=C(N)N)sc2C1` [Example 1, 2-Guanidino-5-isopropylcarbamoyl-4,5,6,7-teteahydrothiazolo-[5,4-c]pyridine], the ED50 in the test with stress ulcers was 2.9 mg/kg; in test [1], 0.017 mg/kg; in the test with gastric secretion it was 0.33 mg/kg; in test [2] it was 0.4 mg/kg. Also, the Anti-H2 activity test entry with histamine H2-receptor is “active”.
